Source: patent US20150150261A1, “METHODS FOR APPLYING DIFORMYLUREA TO CROPS FOR GREATER PLANT PRODUCTIVITY” (Stoller Enterprises, Inc., priority 2013, published 2015)
“Also recorded” adds a separate entry of the source.

Assays:
Format in all cases: in vivo
corn plants [1] = assay: Root structure of DFU-treated vs untreated corn plants (FIG. 1); details: treated vs untreated corn plant
Source text: FIG. 1 is a photograph illustrating root structure of two corn plants, one treated (on right) with DFU, the other untreated (on left); It has been discovered that application of DFU to growing crop plants results in a large increase in the functional capacity of the crop plant root system because of selective root tissue synthesis and development of fine small feeder roots that operate to take up water and minerals from the soil environment. Treatment of crop plant tissue described herein includes exogenous treatment of the crop plants with a DFU solution at a rate of between 0.1 to 10 pints/acre over the crop growth stages or as a preferred rate of 0.5 to 1.5 pints per acre. Preferably, the concentration of the DFU which is applied at the above rates is from stock solutions of 0.001 Molar to 1.0 Molar with a preferred Molarity of 0.001 Molar to 0.05 Molar. FIG. 1 is a photograph of two plants: the plant on the left had no treatment with DFU; the plant on the right hand side was treated with DFU. […] The treated plant on the right hand side of FIG. 1 is in contrast to the thicker deeper roots of the plant on the left hand side which has fewer “root tips” for water and nutrient uptake from the soil. The DFU treated plant on the right has smaller feeder roots for water, mineral, and nutrient uptake from the roots to the shoots.

corn plant [2] = assay: Soil moisture around feeder roots of corn plants (FIGS. 2, 3); details: DFU-treated (FIG. 3) vs untreated (FIG. 2) corn plant
Source text: FIG. 2 is a photograph of a root structure showing dry soil around the roots of a corn plant that has not been treated with DFU; FIG. 3 is a photograph of a root structure showing moist soil around the roots of a corn plant (grown under the same conditions as that of FIG. 2) treated with DFU; It has also been discovered that applying DFU to crop plants causes enhancement of crop plant cellular water and soil moisture around the feeder roots. Compare the feeder root system of FIG. 2 of a plant that has had no DFU applied to it with the feeder root system of FIG. 3 of a plant that has DFU applied to it.

corn seedlings [3] = assay: Guttation on corn seedling leaves (FIG. 4); details: as a function of DFU amounts
Source text: FIG. 4 illustrates the results of increased guttation on seedling leaves as a function of DFU amounts.

corn plants [4] = assay: Survival of corn plants in a flooded field (FIGS. 5-13); details: corn field flooded by excessive rain; in furrow DFU
Source text: The method of applying DFU to crop plants, which has been covered by natural rain or other types of flooding is a distinctive enhanced feature of DFU treatment of crop plants to ameliorate damaging effects of field soil excessive moisture such as flooding. The most efficacious method of DFU treatment for this feature is that of an “in furrow” application into the open soil furrow at time of crop seed sowing with a spray of DFU at a dose of one to one and a half pints per acre over the seed and unto the soil of the open furrow before closure of the open furrow and application of pressure to the closed furrow for optimal soil contact with the seed. […] DFU is preferably sprayed at a dose of 1 pint per acre to 1½ pints per acre over the seed and onto the soil of the open furrow before closure of the open furrow and application of pressure to the closed furrow for optional soil contact with the seed. FIG. 5 is a photograph of a corn field completely flooded by excessive rain. FIGS. 6 and 7 show corn plants treated with DFU after the excessive water has retreated somewhat. The corn plants are seen to be growing. […] FIG. 9 is a photograph of a corn field which has not been treated with DFU, but after flooding, has been almost completely killed because of the water. FIG. 10 is a close-up photo of corn that has been killed because of flooding. […]

corn plant [5] = assay: Internodal stalk volume of corn plants (Table 1)
Procedure: It has also been discovered that DFU treatment of corn plants increases the inter-nodal volume of corn plants. Table 1 below confirms that discovery where intermodal stalk volumes of untreated corn crop plants was calculated to be 311.71 cc per plant whereas the inter-nodal stalk volumes of the DFU-treated corn plant was 355.47, an increase of 14% over the control plant.

corn seedlings [6] = assay: Sealed barrel water use test with corn seedlings (FIG. 14)
Procedure: It has also been discovered that crops treated with DFU require less water for growing. See the results illustrated in FIG. 14. In two barrels that were sealed at the top, a precise amount of growing medium was added with appropriate fertilizer and a precise amount of water. […] Seven corn seedlings were germinated and grown in the growing medium in each of the barrels for a period of 37 days. At 37 days the fresh weight and dry weights of corn plants were determined. The graph on the right side of […] depicts the combined weight of the water and the plants growing out of the barrels. The graph on the left depicts the average amount of water needed to grow the treated vs the untreated corn, indicating a twenty eight percent savings with the DFU-treated plants contrasted to the untreated plants. The two barrels were constantly weighed electronically.

soybean plants = assay: Soybean yield after DFU seed treatment (Table 2)
Source text: As further evidence the increase in crop production as a result of DFU treatment see Table 2 below. Untreated soybean plant yields were 52.5 bushels per acre. The DFU treated soybean plants yielded 111 bushels per acre. This represents an increase in […] of 111 percent.

soybean = assay: Soybean yield with DFU and Quadris fungicide (Table 3)
Source text: Table 3 below illustrates the increased performance of herbicides and fungicides for crop plants by addition of DFU to the crops. Quadris™ fungicide (product of Syngenta Crop Protection, Inc.) was applied at the R1 stage of growth and gave a yield increase of 15 bushels per acre. DFU by itself increased soybean yields by 40 bushels per acre. DFU and Quadris applied together increased the yields by 52 bushels.

[7] = system: field corn cultivar DKC 66-96; assay: Field corn yield, nitrogen fertilizer use efficiency (Table 4)
Source text: A total of 180 lb of nitrogen fertilizer/acre, with ½ of nitrogen applied at V4 (forth leaf) and ½ at V7 (seventh leaf) as a side dress (3 inches to the side of the plant and 3 inches below the soil surface). The field corn cultivar DKC 66-96 was planted on Feb. 11, 2013 and harvested on Jul. 12, 2013.

field corn = assay: Field corn yield, foliar DFU at V4 along with Round-Up herbicide (Table 5); design: Yield rep1 / Yield rep2 / Yield rep3 / Yield rep4: unit not given here; details: for Yield Bu/acre: control 209
Source text: Table 5 below illustrates the effect of foliar application of DFU applied at V4 (4th leaf stage of crop growth) at either the rate of ½ pt/acre along with the herbicide Round-Up™ herbicides on field corn. Both the control and the treatments also had 0.9 lb of ammonium sulfate applied along with the herbicide and di-formylurea (DFU). The field corn was planted in southern Texas on Mar. 3, 2012, at a population density of 35,000 plants per acre. […] The large difference was in the harvestable yields of the di-formyl urea treated plants over the control which received the herbicide only.

corn crop = assay: Corn crop yield with DFU combined with nitrogen fertilizer; details: DFU combined with nitrogen fertilizer to the soil vs nitrogen fertilizer alone
Source text: Enhanced tissue development in DFU treated corn plants is illustrated by the experiment illustrated in FIG. 15.

[8] = soybean, seed treatment 2 oz DFU/cwt of seed
[9] = soybean yield, DFU 1 pt/acre, Quadris recommended rate
[10] = field corn, seed treat 2 oz/cwt, V4 ½ pt, V9 1 pt

SMILES: O=CNC(=O)NC=O [DFU, diformylurea]
- fine small feeder root system development (corn plants [1]): significantly greater fine small feeder root system development
- soil moisture around the root system (corn plant [2]): Much more moist soil
- guttation of water on plant leaves (corn seedlings [3]): increases guttation
- survival of plants in flooded field (corn plants [4]): prevents drowning of the plants; also recorded: survived the flood
- Internodal Volume (cc) (corn plant [5]; Growth Stage V1): 33.49 cc
- Internodal Volume (cc) (corn plant [5]; Growth Stage V2): 45.02 cc
- Internodal Volume (cc) (corn plant [5]; Growth Stage V3): 55.76 cc
- Internodal Volume (cc) (corn plant [5]; Growth Stage V4): 59.14 cc
- Internodal Volume (cc) (corn plant [5]; Growth Stage V5): 54.34 cc
- Internodal Volume (cc) (corn plant [5]; Growth Stage V6): 47.79 cc
- Internodal Volume (cc) (corn plant [5]; Growth Stage V7): 35.02 cc
- Internodal Volume (cc) (corn plant [5]; Growth Stage V8): 24.9 cc
- inter-nodal stalk volumes per plant (corn plant [5]; calculated total, untreated 311.71): 355.47 cc per plant
- increase of inter-nodal stalk volume over the control plant (corn plant [5]; vs untreated corn plant): 14%
- savings in average amount of water needed to grow corn (corn seedlings [6]; 0.0015% solution of DFU, 37 days, vs untreated): twenty eight
- enhanced water use efficiency (corn seedlings [6]; crop plants treated with DFU): up to 28%
- increase in water use efficiency (soybean plants; soybean yield vs untreated 52.5 bushels per acre): 111%
- Rep 1 Yield (soybean plants; [8]): 109
- Rep2 Yield (soybean plants; [8]): 112
- Rep3 Yield (soybean plants; [8]): 111
- Rep4 Yield (soybean plants; [8]): 112
- Average Yield bu per acre (soybean plants; soybean, seed treatment 2 oz DFU/cwt of seed, control 52.5): 111 bu per acre
- soybean plant yield (soybean plants; untreated 52.5): 111 bushels per acre
- Soybean Yield Bu/acre (soybean; DFU @ 1 pt/acre, Quadris @ recommended rate at R1, control 55.0): 95.1 Bu/acre
- Rep 1 (soybean; [9]): 92.7
- Rep 2 (soybean; [9]): 95.8
- Rep 3 (soybean; [9]): 89.9
- Rep 4 (soybean; [9]): 102
- soybean yield increase (soybean; vs control): 40 bushels per acre
- Rep 1 Yield [7, 10]: 175.5
- Rep2 Yield [7, 10]: 188
- Rep3 Yield [7, 10]: 178.7
- Rep4 Yield [7, 10]: 185.1
- Average Yield bu per acre ([7]; field corn, seed treat 2 oz/cwt, V4 ½ pt, V9 1 pt, 180 lb nitrogen fertilizer/acre, control 112.6): 180.6 bu per acre
- increase in efficiency of use of the available nitrogen mineral fertilizer ([7]; harvested yield vs untreated control): 60.7%
- Yield % increase (field corn; V4 foliar 1 pt/acre): 21.5%
- Yield increase bu/acre vs control (field corn; V4 foliar 1 pt/acre): 45 bu/acre
- Yield rep1 (field corn; V4 foliar 1 pt/acre): 246
- Yield rep2 (field corn; V4 foliar 1 pt/acre): 251
- Yield rep3 (field corn; V4 foliar 1 pt/acre): 256
- Yield rep4 (field corn; V4 foliar 1 pt/acre): 264
- Yield Bu/acre (field corn; V4 foliar 1 pt/acre with Round-Up and ammonium sulfate): 254 Bu/acre
- Yield % increase (field corn; V4 foliar ½ pt/acre): 13.9%
- Yield increase bu/acre vs control (field corn; V4 foliar ½ pt/acre): 29 bu/acre
- Yield rep1 (field corn; V4 foliar ½ pt/acre): 227
- Yield rep2 (field corn; V4 foliar ½ pt/acre): 232
- Yield rep3 (field corn; V4 foliar ½ pt/acre): 224
- Yield rep4 (field corn; V4 foliar ½ pt/acre): 237
- Yield Bu/acre (field corn; V4 foliar ½ pt/acre with Round-Up and ammonium sulfate): 230 Bu/acre
- yield of the corn crop (corn crop): significantly enhances yield
